B1: HNF4a: Hepatocyte Nuclear Factor α (NR2A1), cDNA driver (protein, UniProt P41235 1-474, looked up)
Hepatocyte nuclear factor …: MRLSKTLVDMDMADYSAALDPAYTTLEFENVQVLTMGNDTSPSEGTNLNAPNSLGVSALCAICGDRATGKHYGASSCDGCKGFFRRSVRKNHMYSCRFSRQCVVDKDKRNQCRYCRLKKCFRAGMKKEAVQNERDRISTRRSSYEDSSLPSINALLQAEVLSRQITSPVSGINGDIRAKKIASIADVCESMKEQLLVLVEWAKYIPAFCELPLDDQVALLRAHAGEHLLLGATKRSMVFKDVLLLGNDYIVPRHCPELAEMSRVSIRILDELVLPFQELQIDDNEYAYLKAIIFFDPDAKGLSDPGKIKRLRSQVQVSLEDYINDRQYDSRGRFGELLLLLPTLQSITWQMIEQIQFIKLFGMAKIDNLLQEMLLGGSPSDAPHAHHPLHPHLMQEHMGTNVIVANTMPTHLSNGQMCEWPRPRGQAATPETPQPSPPGGSGSEPYKLLPGAVATIVKPLSAIPQPTITKQEVI
B2: LXRb: Liver X Receptor β (NR1H2), cDNA driver (protein, UniProt P55055 1-460, looked up)
Oxysterols receptor LXR-beta: MSSPTTSSLDTPLPGNGPPQPGAPSSSPTVKEEGPEPWPGGPDPDVPGTDEASSACSTDWVIPDPEEEPERKRKKGPAPKMLGHELCRVCGDKASGFHYNVLSCEGCKGFFRRSVVRGGARRYACRGGGTCQMDAFMRRKCQQCRLRKCKEAGMREQCVLSEEQIRKKKIRKQQQESQSQSQSPVGPQGSSSSASGPGASPGGSEAGSQGSGEGEGVQLTAAQELMIQQLVAAQLQCNKRSFSDQPKVTPWPLGADPQSRDARQQRFAHFTELAIISVQEIVDFAKQVPGFLQLGREDQIALLKASTIEIMLLETARRYNHETECITFLKDFTYSKDDFHRAGLQVEFINPIFEFSRAMRRLGLDDAEYALLIAINIFSADRPNVQEPGRVEALQQPYVEALLSYTRIKRPQDQLRFPRMLMKLVSLRTLSSVHSEQVFALRLQDKKLPPLLSEIWDVHE

Assays:
[1] = test system: RevErba promoter; test: NHR-promoter luciferase screen, RevErba (RVRa) promoter; format: cell-based; set-up: key to mRevErba promoter reporter activity / Normalized Luc. act., normalized to control: luciferase activity normalized to lacZ and to control (no NHR/ligand); conditions: for Luc. act., normalized to lacZ / Normalized Luc. act., normalized to control / normalized Luc. act. on a logarithmic scale (column without head, Table 33) / negative reciprocal of normalized Luc. act. (fold repression; Table 33): RVRa promoter; for Luc. act., normalized to lacZ / Normalized Luc. act., normalized to control: HR component without or with ligand; for normalized Luc. act. on a logarithmic scale (column without head, Table 33): log10 of activity normalized to control; for mRevErba promoter reporter activity: transcription factor +/- ligand, control = 1.00; for negative reciprocal of normalized Luc. act. (fold repression; Table 33): given only where activity is below control
Description: Briefly, there were co-expressed 50 ng of each NHR/NHR homodimer or NHR/RXR heterodimer with 100 ng promoter/luciferase construct and 50 ng of LacZ (as a control for transfection efficiency) in CV-1 cells using Fugene HD (Roche) as a transfection reagent (alternatively or additionally, a CMV-YFP construct can be used as a transfection control). Each of the nuclear hormone receptors that were used in these experiments was cloned into a pcDNA3.1 vector and comprised a C-terminally linked V5H6 tag.
(§1) The promoters that facilitate transcription of the indicated gene products that were tested using the protocols described herein are listed in the first row of the table. The nuclear hormone receptors and, where applicable, ligands that were assayed for their transcriptional effects on the promoters are listed in the first column of the table. The data represent the luciferase activity of each sample normalized to both the lacZ activity of that sample and to a control, e.g., no NHR or ligand, as customary in the art. As described previously, these normalizations allow the transcriptional activity of each reporter cell to be compared to other samples.
The control data of each table are shown in their last rows.

[2] = test system: mPOMC promoter; test: NHR-promoter luciferase screen, mPOMC promoter; format: cell-based, mouse; conditions: for Results of assays of transcription factor (+/- ligand) with mPOMC: Table 6d, luciferase activity relative to control (control = 1.00); for Luc. act., normalized to lacZ / Normalized Luc. act., normalized to control: mPOMC promoter, HR component with or without ligand; for Normalized Luc. act., normalized to control: relative to control
Description: (§2) The use, feasibility, and reproducibility of the functional NHR-promoter screen in a 48-well format have been tested validated. Briefly, there were co-expressed 50 ng of each NHR/NHR homodimer or NHR/RXR heterodimer with 100 ng promoter/luciferase construct and 50 ng of LacZ (as a control for transfection efficiency) in CV-1 cells using Fugene HD (Roche) as a transfection reagent (alternatively or additionally, a CMV-YFP construct can be used as a transfection control). Each of the nuclear hormone receptors that were used in these experiments was cloned into a pcDNA3.1 vector and comprised a C-terminally linked V5H6 tag. Twenty-four hours after transfection, appropriate ligands were added, where applicable, (see Table 5 for various ligands and concentrations and after 48 hrs, samples were assayed for luciferase and LacZ activity. To measure for luciferase activity 15 ul of sample was added to 30 ul of luciferase buffer (20 mM tricine, 1.07 mM MgCarbonate, 2.67 mM MgSulfate, 0.1 mM Naz-EDTA, 5 mM DTT, 5 mM ATP, 0.15 mg/ml CoA, 0.5 mM Luciferin), mixed briefly, and run in a Perkin Elmer Victor 5 luminometer. Thus, the functional NHR-promoter screen was used to observe the transcriptional activity of 29 promoters from various physiological pathways including inflammation, lipid and sugar metabolism, cholesterol transport, xenobiotic metabolism, and circadian rhythm.
as §1
(§3) Tables 7-40 show the transcriptional effects of the hormone receptors, and, where applicable, ligands (orphan receptors are screened without ligand), on each individual promoter. […] The control data of each table are shown in their last rows.

[3] = test system: mAgrp promoter; test: NHR-promoter luciferase screen, mAgrp promoter; format: cell-based, mouse; conditions: for Results of assays of transcription factor (+/- ligand) with mAgrp: Table 6d, luciferase activity relative to control (control = 1.00); for Luc. act., normalized to lacZ / Normalized Luc. act., normalized to control: mAgrp promoter, HR component with or without ligand; for Normalized Luc. act., normalized to control: relative to control
Description: as §2, §1, §3

[4] = test system: mADRP promoter; test: NHR-promoter luciferase screen, mADRP promoter; format: cell-based, mouse; conditions: for Luc. act., normalized to lacZ / Normalized Luc. act., normalized to control: ADRP promoter, HR/ligand component; for mADRP promoter reporter activity: transcription factor +/- ligand, control = 1.00
Description: as §2, §1, §3

[5] = test system: mAdiponectin promoter; test: NHR-promoter luciferase screen, mAdiponectin promoter; format: cell-based, mouse; conditions: for Luc. act., normalized to lacZ / Normalized Luc. act., normalized to control: Adiponectin, HR component without or with its ligand; for mAdiponectin promoter reporter activity: transcription factor +/- ligand, control = 1.00
Description: as §2, §1, §3

| Molecule | Luc. act., normalized to lacZ [1] | Normalized Luc. act., normalized to control [1] | normalized Luc. act. on a logarithmic scale (column without head, Table 33) [1] | mRevErba promoter reporter activity [1] | Results of assays of transcription factor (+/- ligand) with mPOMC [2] | Luc. act., normalized to lacZ [2] | Normalized Luc. act., normalized to control [2] | Results of assays of transcription factor (+/- ligand) with mAgrp [3] | Luc. act., normalized to lacZ [3] | Normalized Luc. act., normalized to control [3] | Luc. act., normalized to lacZ [4] | Normalized Luc. act., normalized to control [4] | mADRP promoter reporter activity [4] | Luc. act., normalized to lacZ [5] | Normalized Luc. act., normalized to control [5] | mAdiponectin promoter reporter activity [5] | luciferase/LacZ, mAgrp (selected results) ([3]; mAgrp promoter-luciferase, NHR +/- ligand, control = 1.0) | negative reciprocal of normalized Luc. act. (fold repression; Table 33) [1] |
| --- | --- | --- | --- | --- | --- | --- | --- | --- | --- | --- | --- | --- | --- | --- | --- | --- | --- | --- |
| PPARa: Peroxisome proliferator activated receptor α (NR1C1), cDNA driver | 52.1 | 1.9 | 0.27 | 1.86 | 1.13 | 77.6 | 1.1 | 1.06 | 42.1 | 1.1 | 1497.1 | 3.0 | 3.01 | 40.4 | 0.6 | 0.64 | – | – |
| PPARg: Peroxisome proliferator activated receptor γ (NR1C3), cDNA driver | 40.6 | 1.5 | 0.16 | 1.45 | 1.57 | 108.0 | 1.6 | 1.84 | 73.0 | 1.8 | 891.4 | 1.8 | 1.79 | 80.6 | 1.3 | 1.28 | 1.8 | – |
| RXRa: Retinoic X Receptor α (NR2B1), cDNA driver | 26.26 | 0.9 | −0.03 | 0.94 | 0.99 | 68.0 | 1.0 | 1.17 | 46.4 | 1.2 | 783.2 | 1.6 | 1.57 | 57.3 | 0.9 | 0.91 | – | −1.065 |
| SF-1: Steroidogenic Factor 1 (NR5A1, SF1), cDNA driver | 125.0 | 4.5 | 0.65 | 4.47 | 8.37 | 577.5 | 8.4 | 3.58 | 141.9 | 3.6 | 1864.1 | 3.7 | 3.75 | 35.0 | 0.6 | 0.56 | – | – |
| TLX: Tailless (homolog of drosophila) (NR2E1), cDNA driver | 13.5 | 0.5 | −0.32 | 0.48 | 0.74 | 51.1 | 0.7 | 0.82 | 32.4 | 0.8 | 259.2 | 0.5 | 0.52 | 78.4 | 1.2 | 1.25 | – | −2.079 |
| VDR: Vitamin D Receptor (NR1I1), cDNA driver | 27.5 | 1.0 | −0.01 | 0.98 | 1.16 | 79.8 | 1.2 | 1.14 | 45.3 | 1.1 | 766.6 | 1.5 | 1.54 | 57.4 | 0.9 | 0.91 | – | −1.018 |
| B1 | 30.15 | 1.1 | 0.03 | 1.08 | 0.90 | 62.0 | 0.9 | 0.91 | 36.1 | 0.9 | 729.1 | 1.5 | 1.47 | 25.4 | 0.4 | 0.40 | – | – |
| B2 | 30.9 | 1.1 | 0.04 | 1.10 | 0.88 | 60.8 | 0.9 | 0.78 | 31.0 | 0.8 | 1191.8 | 2.4 | 2.40 | 61.7 | 1.0 | 0.98 | – | – |

Reference: patent US20110263454A1, “Methods of Identifying Functional Characteristics of Promoters, Transcription Modifying Proteins and Transcription Modulating Agents” (Salk Institute for Biological Studies, priority 2008, published 2011)
